In ChEMBL document CHEMBL4840352 (J Med Chem, 2021):
Activity calls are given as the source filed them. No cut-off for these calls is given here.

How the values were obtained:
[1] = molecular target: Aurora kinase A (Homo sapiens) (UniProt O14965); test: Inhibition of AURORA-A (unknown origin) at 1000 nM relative to control
[2] = molecular target: Receptor-type tyrosine-protein kinase FLT3 (Homo sapiens) (UniProt P36888); test: Inhibition of FLT3 in human MV4-11 cells assessed as reduction in ERK phosphorylation at 15 nM by Western blot analysis; assay type: cell-based; conditions: time 0-12 hrs, TDE = time-dependent effect
[3] = molecular target: Tyrosine-protein kinase ITK/TSK (Homo sapiens) (UniProt Q08881); conditions: dose 1000.0 nM
Chain of Tyrosine-protein kinase ITK/TSK (Homo sapiens) (Q08881 whole entry): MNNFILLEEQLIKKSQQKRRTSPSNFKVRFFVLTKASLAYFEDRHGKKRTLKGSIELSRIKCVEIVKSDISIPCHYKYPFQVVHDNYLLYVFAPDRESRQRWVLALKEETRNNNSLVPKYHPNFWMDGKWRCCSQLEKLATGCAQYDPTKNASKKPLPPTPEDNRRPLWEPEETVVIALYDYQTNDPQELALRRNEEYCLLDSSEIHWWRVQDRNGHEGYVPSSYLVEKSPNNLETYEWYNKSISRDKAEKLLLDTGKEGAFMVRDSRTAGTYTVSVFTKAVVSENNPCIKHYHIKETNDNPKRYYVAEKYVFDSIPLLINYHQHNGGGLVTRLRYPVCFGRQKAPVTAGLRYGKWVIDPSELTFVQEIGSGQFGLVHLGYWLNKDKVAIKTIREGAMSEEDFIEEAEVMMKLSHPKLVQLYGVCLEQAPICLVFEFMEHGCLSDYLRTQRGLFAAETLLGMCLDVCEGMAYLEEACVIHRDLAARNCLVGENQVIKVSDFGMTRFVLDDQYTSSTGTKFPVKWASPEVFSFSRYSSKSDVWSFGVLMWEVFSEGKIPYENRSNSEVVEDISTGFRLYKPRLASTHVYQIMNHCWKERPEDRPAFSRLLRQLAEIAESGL
Description: Inhibition of ITK (unknown origin) at 1000 nM relative to control

[4] = molecular target: Proto-oncogene tyrosine-protein kinase receptor Ret (Homo sapiens) (UniProt P07949); conditions: dose 1000.0 nM
Description: Inhibition of RET (unknown origin) at 1000 nM relative to control

MOLM-13 [5] = test: Antiproliferative activity against human MOLM-13 cells incubated for 48 hrs by CCK-8 assay; assay type: functional, cell-based; conditions: MOLM-13, 48 h
[6] = molecular target: CDK7/Cyclin H/MNAT1 (Homo sapiens) (UniProt P51946+P50613+P51948); test: Inhibition of CDK7/cyclinH/MAT1 (unknown origin) at 1000 nM relative to control; assay type: protein-complex assay
[7] = test system: Receptor-type tyrosine-protein kinase FLT3 (Homo sapiens), P36888 [UNDEFINED MUTATION]; test: Induction of FLT3-ITD degradation in human MV4-11 cells assessed as accumulation of ubiquitinated FLT3-ITD at 15 nM preincubated for 4 hrs followed by MG132 addition for 2 hrs by immunoprecipitation assay; assay type: cell-based; conditions: time 6.0 hrs
[8] = molecular target: Mast/stem cell growth factor receptor Kit (Homo sapiens) (UniProt P10721); test: Inhibition of KIT (unknown origin) at 1000 nM relative to control
Chain of Mast/stem cell growth factor receptor Kit (Homo sapiens) (P10721 whole entry): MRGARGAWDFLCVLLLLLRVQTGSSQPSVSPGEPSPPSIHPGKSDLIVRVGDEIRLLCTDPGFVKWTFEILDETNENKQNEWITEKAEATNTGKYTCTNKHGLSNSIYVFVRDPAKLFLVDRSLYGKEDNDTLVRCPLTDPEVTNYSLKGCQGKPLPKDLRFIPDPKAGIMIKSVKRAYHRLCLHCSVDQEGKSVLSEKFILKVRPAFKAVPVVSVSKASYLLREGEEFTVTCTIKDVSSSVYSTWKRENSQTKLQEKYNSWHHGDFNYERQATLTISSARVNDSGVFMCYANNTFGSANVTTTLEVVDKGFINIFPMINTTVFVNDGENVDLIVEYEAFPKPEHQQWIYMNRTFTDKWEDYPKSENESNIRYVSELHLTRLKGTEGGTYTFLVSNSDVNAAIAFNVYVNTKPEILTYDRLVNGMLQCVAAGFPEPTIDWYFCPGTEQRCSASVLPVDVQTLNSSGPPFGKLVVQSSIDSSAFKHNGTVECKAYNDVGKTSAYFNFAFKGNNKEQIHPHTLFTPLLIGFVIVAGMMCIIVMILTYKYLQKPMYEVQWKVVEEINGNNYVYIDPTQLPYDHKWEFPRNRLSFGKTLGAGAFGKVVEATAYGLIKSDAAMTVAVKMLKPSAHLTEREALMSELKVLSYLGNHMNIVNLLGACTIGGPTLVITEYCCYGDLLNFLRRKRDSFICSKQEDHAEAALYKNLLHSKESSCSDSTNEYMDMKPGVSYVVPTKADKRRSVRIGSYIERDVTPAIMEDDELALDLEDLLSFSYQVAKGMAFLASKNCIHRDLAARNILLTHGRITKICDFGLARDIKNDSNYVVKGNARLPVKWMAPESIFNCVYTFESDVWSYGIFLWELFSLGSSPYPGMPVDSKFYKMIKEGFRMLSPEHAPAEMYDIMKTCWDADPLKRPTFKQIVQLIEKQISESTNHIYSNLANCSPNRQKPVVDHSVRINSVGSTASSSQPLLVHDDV

[9] = molecular target: ALK tyrosine kinase receptor (Homo sapiens) (UniProt Q9UM73); test: Inhibition of ALK (unknown origin) at 1000 nM relative to control
[10] = molecular target: Platelet-derived growth factor receptor beta (Homo sapiens) (UniProt P09619); test: Induction of PDGFR degradation in human MOLM-13 cells at 0 to 25 nM after 24 hrs by Western blot analysis; assay type: cell-based; conditions: dose 0-25 nM
Chain of Platelet-derived growth factor receptor beta (Homo sapiens) (P09619 whole entry, canonical isoform): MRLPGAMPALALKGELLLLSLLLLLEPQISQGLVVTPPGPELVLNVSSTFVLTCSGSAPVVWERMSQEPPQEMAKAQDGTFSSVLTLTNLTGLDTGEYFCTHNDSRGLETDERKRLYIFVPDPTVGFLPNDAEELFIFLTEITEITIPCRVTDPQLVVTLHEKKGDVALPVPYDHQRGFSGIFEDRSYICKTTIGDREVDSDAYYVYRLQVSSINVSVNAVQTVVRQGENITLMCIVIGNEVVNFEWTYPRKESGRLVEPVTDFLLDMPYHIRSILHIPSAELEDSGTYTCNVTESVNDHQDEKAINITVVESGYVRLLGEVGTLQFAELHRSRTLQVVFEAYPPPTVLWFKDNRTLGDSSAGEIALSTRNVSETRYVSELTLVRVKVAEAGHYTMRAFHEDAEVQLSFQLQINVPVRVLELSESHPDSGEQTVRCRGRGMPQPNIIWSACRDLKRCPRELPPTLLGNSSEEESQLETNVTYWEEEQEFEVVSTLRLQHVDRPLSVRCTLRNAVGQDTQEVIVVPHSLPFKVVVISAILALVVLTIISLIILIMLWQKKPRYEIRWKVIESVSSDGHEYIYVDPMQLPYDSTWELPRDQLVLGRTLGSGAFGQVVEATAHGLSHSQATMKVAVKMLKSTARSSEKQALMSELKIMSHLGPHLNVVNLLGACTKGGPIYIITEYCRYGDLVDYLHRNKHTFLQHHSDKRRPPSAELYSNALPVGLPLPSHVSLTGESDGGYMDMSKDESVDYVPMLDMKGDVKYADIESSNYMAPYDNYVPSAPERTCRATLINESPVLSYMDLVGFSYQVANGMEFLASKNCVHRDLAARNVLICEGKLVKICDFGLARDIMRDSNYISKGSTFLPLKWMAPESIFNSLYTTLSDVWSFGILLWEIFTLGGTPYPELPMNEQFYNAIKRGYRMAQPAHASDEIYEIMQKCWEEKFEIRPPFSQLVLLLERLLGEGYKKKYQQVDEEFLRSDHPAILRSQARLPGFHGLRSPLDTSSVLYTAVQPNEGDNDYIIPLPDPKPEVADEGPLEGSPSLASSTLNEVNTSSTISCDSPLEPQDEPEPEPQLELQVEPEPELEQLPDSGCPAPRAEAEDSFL

MV4-11 [11] = test: Antiproliferative activity against human MV4-11 cells incubated for 48 hrs by CCK-8 assay; assay type: functional, cell-based; conditions: MV4-11, 48 h
MV4-11 [12] = test: Induction of apoptosis in human MV4-11 cells assessed as upregulation of cleaved caspase-3 level at 15 nM by Western blot analysis; assay type: functional, cell-based; conditions: time 0-12 hrs, TDE = time-dependent effect
[13] = test system: Receptor-type tyrosine-protein kinase FLT3 (Homo sapiens), P36888 [D835Y]; conditions: dose 1000.0 nM
Description: Inhibition of FLT3 D835Y mutant (unknown origin) at 1000 nM relative to control

[14] = molecular target: RAC-alpha serine/threonine-protein kinase (Homo sapiens) (UniProt P31749); test: Inhibition of AKT1 (unknown origin) at 1000 nM relative to control
[15] = molecular target: Mast/stem cell growth factor receptor Kit (Homo sapiens) (UniProt P10721); test: Inhibition of KIT in human MV4-11 cells assessed as reduction in STAT3 phosphorylation at 5 to 25 nM after 24 hrs by Western blot analysis; assay type: cell-based; conditions: dose 5-25 nM
[16] = molecular target: Receptor-type tyrosine-protein kinase FLT3 (Homo sapiens) (UniProt P36888); test: Inhibition of FLT3 in human MOLM-13 cells assessed as reduction in FLT3 phosphorylation at 15 nM by Western blot analysis; assay type: cell-based; conditions: time 0-12 hrs, TDE = time-dependent effect
[17] = molecular target: Vascular endothelial growth factor receptor 2 (Homo sapiens) (UniProt P35968); conditions: dose 1000.0 nM
Chain of Vascular endothelial growth factor receptor 2 (Homo sapiens) (P35968 whole entry): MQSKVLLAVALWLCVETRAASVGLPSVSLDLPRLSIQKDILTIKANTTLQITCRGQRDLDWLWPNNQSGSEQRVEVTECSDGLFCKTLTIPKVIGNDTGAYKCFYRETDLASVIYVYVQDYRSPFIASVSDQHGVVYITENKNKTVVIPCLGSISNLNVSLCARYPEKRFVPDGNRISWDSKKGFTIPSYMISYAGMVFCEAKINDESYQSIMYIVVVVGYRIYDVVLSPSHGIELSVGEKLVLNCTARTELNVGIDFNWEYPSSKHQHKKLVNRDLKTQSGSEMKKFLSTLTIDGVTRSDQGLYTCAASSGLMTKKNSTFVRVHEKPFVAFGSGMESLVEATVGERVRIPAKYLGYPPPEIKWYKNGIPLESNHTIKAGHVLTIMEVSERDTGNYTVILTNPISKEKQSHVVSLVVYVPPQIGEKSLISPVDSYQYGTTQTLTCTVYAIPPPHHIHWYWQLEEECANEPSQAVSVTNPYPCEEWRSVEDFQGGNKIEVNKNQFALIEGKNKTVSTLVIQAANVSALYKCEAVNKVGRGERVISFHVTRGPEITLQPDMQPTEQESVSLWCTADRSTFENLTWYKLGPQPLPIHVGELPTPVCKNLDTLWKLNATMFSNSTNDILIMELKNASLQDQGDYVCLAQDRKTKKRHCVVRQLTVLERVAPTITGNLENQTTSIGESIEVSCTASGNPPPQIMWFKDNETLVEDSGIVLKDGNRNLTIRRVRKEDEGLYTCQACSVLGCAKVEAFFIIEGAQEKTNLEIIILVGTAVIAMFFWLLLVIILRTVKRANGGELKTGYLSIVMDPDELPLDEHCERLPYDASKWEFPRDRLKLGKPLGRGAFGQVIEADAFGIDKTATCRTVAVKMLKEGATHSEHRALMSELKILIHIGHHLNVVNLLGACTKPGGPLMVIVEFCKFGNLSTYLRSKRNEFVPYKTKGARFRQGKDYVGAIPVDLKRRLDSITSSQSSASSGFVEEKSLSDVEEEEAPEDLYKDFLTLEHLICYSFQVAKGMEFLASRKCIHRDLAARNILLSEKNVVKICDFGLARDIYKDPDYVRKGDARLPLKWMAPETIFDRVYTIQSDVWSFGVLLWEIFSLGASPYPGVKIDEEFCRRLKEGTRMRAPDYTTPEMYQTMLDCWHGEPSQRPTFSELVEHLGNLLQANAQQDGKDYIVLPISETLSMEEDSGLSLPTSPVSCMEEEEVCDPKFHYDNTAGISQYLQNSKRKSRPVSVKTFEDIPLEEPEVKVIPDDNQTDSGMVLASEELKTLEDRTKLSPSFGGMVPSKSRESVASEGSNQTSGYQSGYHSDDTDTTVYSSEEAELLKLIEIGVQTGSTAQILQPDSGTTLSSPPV
Description: Inhibition of KDR (unknown origin) at 1000 nM relative to control

MV4-11 [18] = test: Induction of apoptosis in human MV4-11 cells assessed as downregulation of Mcl-1 level at 15 nM measured upto 12 hrs by Western blot analysis; assay type: functional, cell-based; conditions: time hrs <=12
[19] = molecular target: Platelet-derived growth factor receptor beta (Homo sapiens) (UniProt P09619); test: Induction of PDGFR degradation in human MV4-11 cells at 0 to 25 nM after 24 hrs by Western blot analysis; assay type: cell-based; conditions: dose 0-25 nM
[20] = molecular target: Casein kinase I isoform alpha-like (Homo sapiens) (UniProt Q8N752); test: Inhibition of CK1A1 (unknown origin) at 1000 nM relative to control
Chain of Casein kinase I isoform alpha-like (Homo sapiens) (Q8N752 whole entry, canonical isoform): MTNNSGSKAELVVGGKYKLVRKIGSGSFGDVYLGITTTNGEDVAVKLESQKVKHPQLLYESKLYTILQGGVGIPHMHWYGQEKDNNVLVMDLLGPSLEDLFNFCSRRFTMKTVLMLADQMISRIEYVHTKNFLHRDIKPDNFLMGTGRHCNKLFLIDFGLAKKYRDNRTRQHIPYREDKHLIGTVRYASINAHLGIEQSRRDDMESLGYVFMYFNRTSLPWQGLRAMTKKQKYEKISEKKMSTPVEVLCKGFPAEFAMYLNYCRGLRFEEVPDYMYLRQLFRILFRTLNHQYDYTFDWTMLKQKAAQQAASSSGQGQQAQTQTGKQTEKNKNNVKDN

MOLM-13 [21] = test: Induction of apoptosis in human MOLM-13 cells after 48 hrs by Annexin-V/PI staining based flow cytometry; assay type: functional, cell-based; conditions: dose 1.25-10 nM
MV4-11 [22] = test: Induction of apoptosis in human MV4-11 cells assessed as downregulation of Bcl-2 level at 15 nM measured upto 12 hrs by Western blot analysis; assay type: functional, cell-based; conditions: time hrs <=12
[23] = molecular target: Proto-oncogene tyrosine-protein kinase Src (Homo sapiens) (UniProt P12931); test: Inhibition of SRC (unknown origin) at 1000 nM relative to control
[24] = molecular target: Receptor-type tyrosine-protein kinase FLT3 (Homo sapiens) (UniProt P36888); test: Inhibition of FLT3 in human MOLM-13 cells assessed as reduction in ERK phosphorylation at 15 nM by Western blot analysis; assay type: cell-based; conditions: time 0-12 hrs, TDE = time-dependent effect
[25] = molecular target: Serine/threonine-protein kinase Chk2 (Homo sapiens) (UniProt O96017); test: Inhibition of CHK2 (unknown origin) at 1000 nM relative to control
MV4-11 [26] = test: Induction of apoptosis in human MV4-11 cells after 48 hrs by Annexin-V/PI staining based flow cytometry; assay type: functional, cell-based; conditions: dose 1.25-10 nM
[27] = molecular target: Tyrosine-protein kinase Lck (Homo sapiens) (UniProt P06239); conditions: dose 1000.0 nM
Chain of Tyrosine-protein kinase Lck (Homo sapiens) (P06239 2-509 limits assumed): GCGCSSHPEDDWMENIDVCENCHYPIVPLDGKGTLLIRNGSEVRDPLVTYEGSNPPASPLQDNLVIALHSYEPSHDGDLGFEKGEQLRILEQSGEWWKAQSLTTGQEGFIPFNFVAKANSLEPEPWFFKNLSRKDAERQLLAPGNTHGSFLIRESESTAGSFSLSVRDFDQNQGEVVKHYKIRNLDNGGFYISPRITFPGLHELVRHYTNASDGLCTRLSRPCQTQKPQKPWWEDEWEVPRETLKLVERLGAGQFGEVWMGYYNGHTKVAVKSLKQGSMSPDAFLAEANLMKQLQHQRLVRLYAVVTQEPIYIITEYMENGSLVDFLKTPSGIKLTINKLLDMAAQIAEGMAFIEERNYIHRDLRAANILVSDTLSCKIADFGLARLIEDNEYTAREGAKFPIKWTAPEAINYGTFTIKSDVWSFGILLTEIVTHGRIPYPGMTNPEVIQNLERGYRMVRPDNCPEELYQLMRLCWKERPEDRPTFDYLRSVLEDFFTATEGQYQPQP
Description: Inhibition of LCK (unknown origin) at 1000 nM relative to control

[28] = molecular target: Homeodomain-interacting protein kinase 1 (Homo sapiens) (UniProt Q86Z02); conditions: dose 1000.0 nM
Description: Inhibition of HIPK1 (unknown origin) at 1000 nM relative to control

[29] = molecular target: Fibroblast growth factor receptor 2 (Homo sapiens) (UniProt P21802); conditions: dose 1000.0 nM
Description: Inhibition of FGFR2 (unknown origin) at 1000 nM relative to control

[30] = molecular target: Tyrosine-protein kinase JAK3 (Homo sapiens) (UniProt P52333); test: Inhibition of JAK3 (unknown origin) at 1000 nM relative to control
MOLM-13 [31] = test: Induction of apoptosis in human MOLM-13 cells assessed as downregulation of Bcl-2 level at 15 nM measured upto 12 hrs by Western blot analysis; assay type: functional, cell-based; conditions: time hrs <=12
[32] = molecular target: Serine/threonine-protein kinase 4 (Homo sapiens) (UniProt Q13043); test: Inhibition of MST1 (unknown origin) at 1000 nM relative to control
[33] = molecular target: Rho-associated protein kinase 1 (Homo sapiens) (UniProt Q13464); test: Inhibition of ROCK1 (unknown origin) at 1000 nM relative to control
MOLM-13 [34] = test: Induction of apoptosis in human MOLM-13 cells assessed as upregulation of cleaved caspase-3 level at 15 nM by Western blot analysis; assay type: functional, cell-based; conditions: time 0-12 hrs, TDE = time-dependent effect
[35] = test system: Receptor-type tyrosine-protein kinase FLT3 (Homo sapiens), P36888 [UNDEFINED MUTATION]; conditions: dose 1000.0 nM
Description: Inhibition of FLT3 ITD mutant (unknown origin) at 1000 nM relative to control

[36] = test system: Receptor-type tyrosine-protein kinase FLT3 (Homo sapiens), P36888 [UNDEFINED MUTATION]; test: Induction of FLT3-ITD degradation in human MV4-11 cells at 20 nM pretreated with MG132 for 2 hrs followed compound addition for 6 hrs by Western blot analysis; assay type: cell-based
[37] = molecular target: Mast/stem cell growth factor receptor Kit (Homo sapiens) (UniProt P10721); test: Inhibition of KIT in human MV4-11 cells assessed as reduction in PI3K phosphorylation at 5 to 25 nM after 24 hrs by Western blot analysis; assay type: cell-based; conditions: dose 5-25 nM

Question: With `Nc1c(-c2nc3cc(N4CCN(C(=O)CCCCCNc5cccc6c5C(=O)N(C5CCC(=O)NC5=O)C6=O)CC4)ccc3[nH]2)c(=O)[nH]c2cccc(F)c12` (configuration not stated) as the compound, how does the inhibition [1] read?
Answer: 17%

Question: What about the inhibition [2] of the same compound?
Answer: Tde

Question: And the inhibition [3]?
Answer: 42%

Question: What about the inhibition [4] of the same compound?
Answer: 39%

Question: And the IC50 (MOLM-13 [5])?
Answer: 9.5 nM

Question: What about the inhibition [6] of the same compound?
Answer: 0%

Question: And the Activity [7]?
Answer: Active

Question: And the inhibition [8]?
Answer: 83%

Question: And the inhibition [9]?
Answer: 25%

Question: And the Activity [10]?
Answer: Active

Question: And the IC50 (MV4-11 [11])?
Answer: 9.2 nM

Question: And the Activity (MV4-11 [12])?
Answer: Tde

Question: And the inhibition [13]?
Answer: 95%

Question: And the inhibition [14]?
Answer: 7%

Question: And the inhibition [15]?
Answer: Active

Question: What about the inhibition [16] of the same compound?
Answer: Tde

Question: What about the inhibition [17] of the same compound?
Answer: 69%

Question: And the Activity (MV4-11 [18])?
Answer: Active

Question: What about the Activity [19] of the same compound?
Answer: Active

Question: And the inhibition [20]?
Answer: 1%

Question: And the Activity (MOLM-13 [21])?
Answer: Dose-Dependent Effect

Question: And the Activity (MV4-11 [22])?
Answer: Active

Question: What about the inhibition [23] of the same compound?
Answer: 37%

Question: What about the inhibition [24] of the same compound?
Answer: Tde

Question: And the inhibition [25]?
Answer: 0%

Question: What about the Activity (MV4-11 [26]) of the same compound?
Answer: Dose-Dependent Effect

Question: What about the inhibition [27] of the same compound?
Answer: 16%

Question: And the inhibition [28]?
Answer: 5%

Question: And the inhibition [29]?
Answer: 34%

Question: What about the inhibition [30] of the same compound?
Answer: 1%

Question: What about the Activity (MOLM-13 [31]) of the same compound?
Answer: Active

Question: And the inhibition [32]?
Answer: 32%

Question: And the inhibition [33]?
Answer: 4%

Question: And the Activity (MOLM-13 [34])?
Answer: Tde

Question: What about the inhibition [35] of the same compound?
Answer: 98%

Question: And the Activity [36]?
Answer: inactive

Question: And the inhibition [37]?
Answer: Active
